Assay results reported in publication PMC10746543, “Design principles for cyclin K molecular glue degraders” (Nature Chemical Biology, 2023).
Values joined by “and” are separate entries in the source; they are usually repeats but may differ in a detail not shown here. Equal entries are not always repeated. Where two headings read alike, the source gives them in different places.

Tests used:
[1] = tested on: HEK293T cells; experiment: Drug sensitivity assay (CellTiter-Glo viability) with or without MLN4924 pretreatment; type: cell-based, human; conditions: for EC50: Homo sapiens, HEK-293T, HEK293T viability, 72 h, compound alone, read-out: Cellular assays EC50; for EC50 / Toxicity rescue: Supplementary Table 2; for Toxicity rescue: MLN4924-mediated cytotoxicity rescue, 10 µM used where n.d.
Procedure, shortened: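 Cas9-expressing HEK293T cells receive either vehicle or 100 nM MLN4924, then compounds 2 h afterwards. After three days, luminescence-based viability is measured and calculated relative to DMSO.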

[2] = biological target: T1, CDK12–cyclin K and DDB1 (Homo sapiens, UniProt Q16531+Q9NYV4, K965R); experiment: TR-FRET ternary complex formation assay (compound titration); type: binding; conditions: for TR-FRET signal at compound concentration: replicate titrations; for fold lower affinity than DS11: TR-FRET complex formation
T1 construct: His6–CDK12 (a.a. 713–1,052); full-length or beta-propeller B domain deletion (ΔBPB: a.a. 396–705 deleted) constructs of His6–DDB1ΔBPB, StrepII–Avi–DDB1, or His6–Spy–DDB1; made in house; host or cells: Trichoplusia ni High Five insect cells (baculovirus)
T1 sequence (Q9NYV4 713-1052 K965R): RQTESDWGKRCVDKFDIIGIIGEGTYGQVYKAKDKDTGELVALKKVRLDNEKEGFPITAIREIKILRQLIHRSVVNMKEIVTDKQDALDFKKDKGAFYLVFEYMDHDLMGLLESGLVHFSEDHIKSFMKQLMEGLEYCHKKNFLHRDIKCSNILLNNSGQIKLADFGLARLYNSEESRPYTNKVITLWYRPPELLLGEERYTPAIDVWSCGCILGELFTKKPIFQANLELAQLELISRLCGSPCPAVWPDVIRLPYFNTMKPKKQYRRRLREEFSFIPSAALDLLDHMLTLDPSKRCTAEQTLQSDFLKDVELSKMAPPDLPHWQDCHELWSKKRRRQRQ
T1 sequence (O75909 1-267 partner): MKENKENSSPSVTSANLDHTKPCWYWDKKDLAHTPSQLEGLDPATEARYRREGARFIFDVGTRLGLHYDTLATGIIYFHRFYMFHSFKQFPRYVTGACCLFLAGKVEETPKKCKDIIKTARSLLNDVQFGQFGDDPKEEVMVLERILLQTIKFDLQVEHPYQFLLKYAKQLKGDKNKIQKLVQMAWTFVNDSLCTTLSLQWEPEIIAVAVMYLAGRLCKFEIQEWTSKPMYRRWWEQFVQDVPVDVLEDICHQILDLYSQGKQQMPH
T1 sequence (Q16531 whole entry): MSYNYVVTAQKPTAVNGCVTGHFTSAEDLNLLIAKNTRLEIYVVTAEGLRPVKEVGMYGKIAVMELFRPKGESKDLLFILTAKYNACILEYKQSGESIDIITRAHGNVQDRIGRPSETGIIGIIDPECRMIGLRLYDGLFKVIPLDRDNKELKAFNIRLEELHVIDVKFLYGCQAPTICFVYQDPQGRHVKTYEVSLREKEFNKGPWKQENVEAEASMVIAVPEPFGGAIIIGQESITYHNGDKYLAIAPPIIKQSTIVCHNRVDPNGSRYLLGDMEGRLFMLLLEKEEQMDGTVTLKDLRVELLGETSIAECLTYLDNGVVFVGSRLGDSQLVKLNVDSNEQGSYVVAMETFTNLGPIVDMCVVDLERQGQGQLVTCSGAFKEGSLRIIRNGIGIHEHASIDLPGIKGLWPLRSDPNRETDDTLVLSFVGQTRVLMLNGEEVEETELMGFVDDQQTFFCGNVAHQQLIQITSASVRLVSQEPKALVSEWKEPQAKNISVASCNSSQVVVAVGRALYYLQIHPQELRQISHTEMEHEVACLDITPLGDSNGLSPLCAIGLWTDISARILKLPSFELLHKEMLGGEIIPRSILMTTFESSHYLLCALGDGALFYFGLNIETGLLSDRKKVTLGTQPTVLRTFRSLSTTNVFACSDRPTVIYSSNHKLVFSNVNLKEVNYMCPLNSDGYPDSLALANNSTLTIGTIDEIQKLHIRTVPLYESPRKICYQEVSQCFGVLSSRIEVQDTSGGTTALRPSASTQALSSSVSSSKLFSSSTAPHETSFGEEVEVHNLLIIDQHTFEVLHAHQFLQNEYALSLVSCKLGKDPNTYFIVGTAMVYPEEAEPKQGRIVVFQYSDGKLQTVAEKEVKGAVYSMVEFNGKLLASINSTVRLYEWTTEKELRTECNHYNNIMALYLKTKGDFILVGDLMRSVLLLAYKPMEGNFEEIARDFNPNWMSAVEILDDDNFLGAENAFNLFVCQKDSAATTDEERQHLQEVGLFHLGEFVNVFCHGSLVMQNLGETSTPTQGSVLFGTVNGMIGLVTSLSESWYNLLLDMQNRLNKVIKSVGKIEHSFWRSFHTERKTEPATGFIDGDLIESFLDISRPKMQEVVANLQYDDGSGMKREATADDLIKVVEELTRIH
Procedure, shortened: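 A time delay of 70 μs preceded acquisition, limiting background fluorescence; the ratio of emission at 520 versus 490 nm gave the TR-FRET value.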

[3] = tested on: cyclin K–eGFP degradation reporter; experiment: Cyclin K reporter stability analysis (dual-color cyclin K–eGFP reporter); type: cell-based, human
Procedure, shortened: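 Readout: flow-cytometric eGFP/mCherry ratio (geometric means, round mCherry+ gate) relative to the average of three DMSO wells. Reporter line was HEK293T–Cas9, treated 5 h with compound.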

[4] = compound concentration 0.468 nM
[5] = compound concentration 7.92001 nM
[6] = compound concentration 15.84 nM
[7] = compound concentration 30.96 nM
[8] = compound concentration 62.6401 nM
[9] = compound concentration 125.28 nM
[10] = compound concentration 244.8 nM
[11] = compound concentration 993.601 nM
[12] = compound concentration 2001.6 nM
[13] = in vitro complex formation, 50 nM CDK12–cyclin K, 100 nM DDB1, text and figures, read-out: TR-FRET EC50
[14] = sheet MOESM7, read-out: log TR-FRET EC50 (converted)
[15] = source data sheet correlations, read-out: TR-FRET EC50
[16] = source data sheet correlations, read-out: DC50
[17] = Supplementary Table 2, read-out: TR-FRET EC50 TR-FRET
[18] = Supplementary Table 2, HEK293T cycK-eGFP reporter, 5 h, read-out: Cellular assays DC50
[19] = compound concentration 79.2001 nM
[20] = compound concentration 158.4 nM
[21] = compound concentration 309.6 nM
[22] = compound concentration 626.401 nM
[23] = compound concentration 1252.8 nM
[24] = compound concentration 9936.01 nM
[25] = compound concentration 20016 nM

Row | SMILES | EC50 [1] | Toxicity rescue [1] | TR-FRET signal at compound concentration [2, 4] | TR-FRET signal at compound concentration ([2]; compound concentration 2.16 nM) | TR-FRET signal at compound concentration ([2]; compound concentration 3.6 nM) | TR-FRET signal at compound concentration [2, 5] | TR-FRET signal at compound concentration [2, 6] | TR-FRET signal at compound concentration [2, 7] | TR-FRET signal at compound concentration [2, 8] | TR-FRET signal at compound concentration [2, 9] | TR-FRET signal at compound concentration [2, 10] | TR-FRET signal at compound concentration [2, 11] | TR-FRET signal at compound concentration [2, 12] | EC50 [2, 13] | EC50 [2, 14] | DC50 [3, 16] | DC50 [3, 18] | further results
1 | CC[C@H](CO)Nc1nc(NCc2ccc(-c3ccccn3)c(F)c2)c2ncn(C(C)C)c2n1 [DS24] | 794 nM | 270% | 0.1746 and 0.2408 | 0.2584 and 0.2684 | 0.3148 and 0.3094 | 0.4213 and 0.4118 | 0.6123 and 0.5731 | 1.004 and 0.9206 | 1.811 and 1.633 | 2.96 and 2.707 | 3.542 and 3.534 | 3.814 and 3.947 | 3.863 and 4.055 | 78 ± 2 nM | 78.2 nM | 172 nM |  | EC50 [2, 15]: 78.2 nM
2 | CC[C@H](CO)Nc1nc(NCc2ccc(-c3ccc(C)s3)cc2)c2ncn(C(C)C)c2n1 [DS25] | 267 nM | 795% | 0.2617 and 0.2677 | 0.4243 and 0.428 | 0.7393 and 0.7415 | 1.2835 and 1.267 | 1.9468 and 1.95 | 2.593 and 2.662 | 3.101 and 3.186 | 3.361 and 3.544 | 3.469 and 3.727 | 3.278 and 3.742 | 3.339 and 3.592 | 15 ± 1 nM |  |  | 90 nM | EC50 [2, 17]: 15 nM
3 | CC[C@H](CO)Nc1nc(NCCCc2ccncc2)c2ncn(C(C)C)c2n1 [DS27] | > 10000 nM | 0% |  |  |  |  |  |  |  |  |  |  |  | 456 ± 34 nM |  |  | > 10000 nM | TR-FRET signal at compound concentration ([2]; compound concentration 4.68 nM): 0.135 and 0.1336; TR-FRET signal at compound concentration ([2]; compound concentration 21.6 nM): 0.1436 and 0.1394; TR-FRET signal at compound concentration ([2]; compound concentration 36 nM): 0.1546 and 0.1561; TR-FRET signal at compound concentration [2, 19]: 0.1838 and 0.187; TR-FRET signal at compound concentration [2, 20]: 0.2226 and 0.2249; TR-FRET signal at compound concentration [2, 21]: 0.2777 and 0.285; TR-FRET signal at compound concentration [2, 22]: 0.3467 and 0.3568; TR-FRET signal at compound concentration [2, 23]: 0.4111 and 0.4466; TR-FRET signal at compound concentration ([2]; compound concentration 2448 nM): 0.4906 and 0.4799; TR-FRET signal at compound concentration [2, 24]: 0.5278 and 0.4844; TR-FRET signal at compound concentration [2, 25]: 0.4733 and 0.5319
4 | CC[C@@H](CO)Nc1nc(NCc2ccc(-c3ccccn3)cc2)c2ncn(C(C)C)c2n1 [DS28, reference compound] | 221 nM | 610% |  |  |  |  |  |  |  |  |  |  |  |  |  | 27 nM |  | TR-FRET signal at compound concentration 0.468 nM ([2]; compound concentration 0.468 nM, raw titration data): 0.2434 and 0.2416 and 0.2052; TR-FRET signal at compound concentration 2.16 nM ([2]; compound concentration 2.16 nM, raw titration data): 0.3117 and 0.3133 and 0.2621; TR-FRET signal at compound concentration 3.6 nM ([2]; compound concentration 3.6 nM, raw titration data): 0.4303 and 0.4364 and 0.3629; TR-FRET signal at compound concentration 7.92001 nM ([2]; compound concentration 7.92001 nM, raw titration data): 0.6777 and 0.6662 and 0.6266; TR-FRET signal at compound concentration 15.84 nM ([2]; compound concentration 15.84 nM, raw titration data): 1.124 and 1.123 and 1.094; TR-FRET signal at compound concentration 30.96 nM ([2]; compound concentration 30.96 nM, raw titration data): 2.005 and 1.92 and 1.844; TR-FRET signal at compound concentration 62.6401 nM ([2]; compound concentration 62.6401 nM, raw titration data): 3.017 and 2.942 and 2.921; TR-FRET signal at compound concentration 125.28 nM ([2]; compound concentration 125.28 nM, raw titration data): 3.528 and 3.596 and 3.608; TR-FRET signal at compound concentration 244.8 nM ([2]; compound concentration 244.8 nM, raw titration data): 3.609 and 3.755 and 3.8349; TR-FRET signal at compound concentration 993.601 nM ([2]; compound concentration 993.601 nM, raw titration data): 3.693 and 3.913 and 3.885; TR-FRET signal at compound concentration 2001.6 nM ([2]; compound concentration 2001.6 nM, raw titration data): 3.507 and 3.702 and 3.683
5 | CC[C@H](CO)Nc1nc(NCCCc2cccc(F)c2)c2ncn(C(C)C)c2n1 [DS29] | 452 nM | 713% | 0.256 and 0.2516 | 0.3133 and 0.3182 | 0.4047 and 0.4311 | 0.6615 and 0.6381 | 1.045 and 0.9914 | 1.635 and 1.536 | 2.287 and 2.228 | 2.838 and 2.826 | 3.127 and 3.261 | 3.39 and 3.672 | 3.566 and 3.699 | 46 ± 2 nM | 45.7 nM | 253 nM |  | % MLN4924 rescue ([1]; PCA input): 669%; EC50 [2, 15]: 45.7 nM
6 | CC[C@H](CO)Nc1nc(NCCc2ccccc2)c2ncn(C(C)C)c2n1 [DS31] | > 10000 nM | 0% |  |  |  |  |  |  |  |  |  |  |  | 1230 ± 134 nM |  |  | > 10000 nM | fold lower affinity than DS11 [2]: 12-22 fold; TR-FRET signal at compound concentration ([2]; compound concentration 4.68 nM): 0.211 and 0.2282; TR-FRET signal at compound concentration ([2]; compound concentration 21.6 nM): 0.2112 and 0.2225; TR-FRET signal at compound concentration ([2]; compound concentration 36 nM): 0.2194 and 0.2418; TR-FRET signal at compound concentration [2, 19]: 0.2283 and 0.2565; TR-FRET signal at compound concentration [2, 20]: 0.2533 and 0.2816; TR-FRET signal at compound concentration [2, 21]: 0.2963 and 0.3231; TR-FRET signal at compound concentration [2, 22]: 0.3477 and 0.3849; TR-FRET signal at compound concentration [2, 23]: 0.4331 and 0.4555; TR-FRET signal at compound concentration ([2]; compound concentration 2448 nM): 0.5457 and 0.5736; TR-FRET signal at compound concentration [2, 24]: 0.6887 and 0.7282; TR-FRET signal at compound concentration [2, 25]: 0.6557 and 0.645
7 | CC[C@H](CO)Nc1nc(NCCCC2CCCCC2)c2ncn(C(C)C)c2n1 [DS32] | > 10000 nM | 0% |  |  |  |  |  |  |  |  |  |  |  |  | 676 nM |  | > 10000 nM | EC50 [2, 17]: 676 nM; fold lower affinity than DS11 [2]: ten-fold; TR-FRET signal, individual replicate ([2]; compound concentration 4.68 nM): 0.2147 and 0.2508; TR-FRET signal, individual replicate ([2]; compound concentration 21.6 nM): 0.2391 and 0.2736; TR-FRET signal, individual replicate ([2]; compound concentration 36 nM): 0.287 and 0.3299; TR-FRET signal, individual replicate [2, 19]: 0.3607 and 0.4271; TR-FRET signal, individual replicate [2, 20]: 0.4885 and 0.5801; TR-FRET signal, individual replicate [2, 21]: 0.7088 and 0.8235; TR-FRET signal, individual replicate [2, 22]: 1.016 and 1.206; TR-FRET signal, individual replicate [2, 23]: 1.37 and 1.584; TR-FRET signal, individual replicate ([2]; compound concentration 2448 nM): 1.698 and 1.9826; TR-FRET signal, individual replicate [2, 24]: 1.942 and 2.207; TR-FRET signal, individual replicate [2, 25]: 1.955 and 2.01
